Test results: patent US12377086B2, “Therapeutic methods, combinations and kits” (priority 2021, dated 2025)
Like-named read-outs stand apart in the source and are kept apart here. Blank lines part the entries; values can stand above or below the molecule they belong to.

Tests used:
VIM-2 [1] = target: VIM-2 (Pseudomonas aeruginosa, UniProt Q5U7L7); details: after incubation with inhibitor and dialysis
Experimental: VIM-2 was diluted to 6 μM with 50 mM HEPES, pH 7.5, containing 150 mM NaCl. The diluted protein solution was used to make several 5 mL aliquots. […] One aliquot contained one molar equivalent of inhibitor (6 μM), with respect to enzyme concentration, and the second aliquot contained two molar equivalents (12 μM). One aliquot contained no inhibitor. Each aliquot was then incubated for 4 h at 4° C. Following incubation, each aliquot was dialyzed versus 500 mL of 50 mM HEPES, pH 7.5, for 4 h at 4° C. The aliquots were analyzed using ICP-AES, as previously described REF. The emission wavelengths used were 213.856, 238.892, 259.940, 231.604, and 324.754 nm for Zn, Co, Fe, Ni, and Cu, respectively.
To further address the mode of action of 8-hydroxyquinolines, equilibrium dialysis experiments were conducted. […] EDTA, a well-known metal scavenger, inhibits all MBLs through a chelation mechanism (Bush, K.; Jacoby, G. A. Updated Functional Classification of beta-Lactamases. Antimicrobial Agents and Chemotherapy 2010, 54, 969-976).

VIM-2 [2] = details: reported previously, cited from earlier work
NDM-1 [3] = target: T1, NDM-1 (Klebsiella pneumoniae, UniProt C7C422)
Experimental: Nitrocefin (Cayman, CAS 41906-86-9) was used as the chromogenic substrate for all biochemical assays. […] The rate of product formation was monitored based on the λmax=486 nm absorbance taken at 10 s intervals for 30 mins. […] Velocity versus substrate concentration curves were fitted by nonlinear regression using Michaelis-Menten Enzyme kinetics with Graphpad Prism 6.

VIM-2 expressing E. coli = format: cell-based, Escherichia coli; details: single dose; for VIM-2 expressing E. coli Amox (+) relative percentage growth compared to untreated cells: with 50 μM amoxicillin
Experimental: (§1) The optical density of the cell cultured was monitored at 600 nm (OD600 nm). The cells were cultured on 0.8 g/100 ml nutrient agar plate at pH 7.0 and 37° C. […] An overnight culture of the bacterial strain was sub-cultured to 0.06 OD600 nm into the NB medium and was then seeded at max 200 μl into the wells of a 96 well microtiter plate. Samples were then incubated at 37° C. and shaken at 200 rpm for 18 h. The absorbance was measured on an ELIZA plate reader and analyzed with the Gen5™ software suite (version 1.08).
(§2) • The data are reported as relative percentage growth compared to untreated cells.

E. coli = format: cell-based, Escherichia coli
Experimental: as §1, §2

NDM-1 [4] = target: T1, NDM-1; experiment: biochemical; details: read-out: NDM-1 percentage inhibition, 50 μM compound, 5 nM MBL, 10 μM nitrocefin, 30 mins
Experimental: BL21 (DE3) E. coli cells containing the pET26b-ndm-1 plasmid were used to inoculate a 50 mL LB starter culture containing kanamycin (25 μg/mL). The culture was grown overnight at 37° C. The starter culture was then used to inoculate 4×1 L LB containing kanamycin (25 μg/mL). These flasks were incubated at 37° C. until culture reached an optical density of (OD600) of 0.6 to 0.8. The incubator was then set to 22° C. and the cultures were shaken for 30 min to allow them to cool. ZnCl2 ([…]) and IPTG (0.5 mM) were then added to the cultures and they were grown for 18 h at 22° C. The cells were then harvested using centrifugation (8000×g) for 10 min. The pellet was resuspended with 25 mL 50 mM HEPES, pH 7.5 containing 500 mM NaCl (Buffer B). Lysis was performed with three passes through a French Press. The lysate was centrifuged for 30 min (15,000×g) at 4° C. The supernatant was then dialyzed versus 2 L 50 mM HEPES, pH 7.5 (Buffer C) for 4 h. An FPLC was used to equilibrate a Q-Sepharose column using buffer C using a flowrate of 2.0 mL/min for 1.5 h. The lysate was then loaded onto the column and eluted with a linear NaCl gradient from 0-500 mM. Fractions containing NDM-1 were identified with SDS-PAGE. These fractions were pooled and concentrated to 2-3 mL in an Amicon ultracentrifugation concentrating unit with a YM-10 membrane. The resulting protein mixture was then loaded onto a Sephacryl S-200 gel filtration column run with 50 mM HEPES, pH 7.5 containing 150 mM NaCl (Buffer A). SDS-PAGE was used to identify fractions containing pure protein.
To identify potential MBL inhibitors, the relative change in the formation of hydrolyzed nitrocefin between treated and untreated MBL was determined as percentage inhibition. 5 nM of each BML was pre-incubated for 10 mins with 50 μM of each compound, followed by the addition of 10 μM nitrocefin.
Each MBL was incubated with 50 μM of each compound, followed by the addition of nitrocefin. The relative change in absorbance is reported as percentage inhibition.

T1 sequence (C7C422 whole entry, looked up, species assumed): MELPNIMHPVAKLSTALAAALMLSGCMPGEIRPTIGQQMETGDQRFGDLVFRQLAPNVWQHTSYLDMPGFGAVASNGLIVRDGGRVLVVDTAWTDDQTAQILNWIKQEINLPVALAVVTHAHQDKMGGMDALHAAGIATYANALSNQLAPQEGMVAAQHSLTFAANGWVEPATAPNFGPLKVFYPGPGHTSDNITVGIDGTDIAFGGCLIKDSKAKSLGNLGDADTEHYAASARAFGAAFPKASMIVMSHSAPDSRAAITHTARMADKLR

- Zn(II) removed from VIM-2 (VIM-2 [1]): 1 equivalent of Zn(II)
Compound: O=C(O)CN(CCN(CC(=O)O)CC(=O)O)CC(=O)O [EDTA]

Compound: O=C(Cc1cccs1)N[C@@H]1C(=O)N2C(C(=O)O)=C(/C=C/c3ccc([N+](=O)[O-])cc3[N+](=O)[O-])CS[C@H]12 [nitrocefin, Nitrocefin]
- kcat, hydrolysis of nitrocefin by VIM-2 (VIM-2 [2]): 212 s⁻¹
- Km (VIM-2 [2]; read-out: Km, hydrolysis of nitrocefin by VIM-2): 23 µM
- kcat, hydrolysis of nitrocefin by NDM-1 (NDM-1 [3]): 25 s⁻¹
- Km (NDM-1 [3]; read-out: Km, hydrolysis of nitrocefin by NDM-1): 2.2 µM

Compound: CC1(C)S[C@@H]2[C@H](NC(=O)[C@H](N)c3ccc(O)cc3)C(=O)N2[C@H]1C(=O)O [Amox, amoxicillin]
- VIM-2 expressing E. coli Amox (+) relative percentage growth compared to untreated cells (VIM-2 expressing E. coli): 77%
- E. coli Amox (+) relative percentage growth compared to untreated cells (E. coli): 3.6%
- growth inhibition of wild type E. coli (E. coli): over 96%

Compound: C[C@H](CS)C(=O)N1CCC[C@H]1C(=O)O [Compound 1, L-captopril, reference compound]
- metal content of VIM-2 / removal of Zn(II) from the active site (VIM-2 [1]): relatively unaffected
- inhibition at 50 µM (NDM-1 [4]): 93%

Compound: O=C(O)[C@H]1/C(=C/CO)O[C@@H]2CC(=O)N21 [Clav, Clavulanate]
- VIM-2 expressing E. coli Amox (+) relative percentage growth compared to untreated cells (VIM-2 expressing E. coli): 57%
- VIM-2 expressing E. coli Amox (−) relative percentage growth compared to untreated cells (VIM-2 expressing E. coli; without amoxicillin): 93%
- E. coli Amox (+) relative percentage growth compared to untreated cells (E. coli; wild type E. coli, single dose, with 50 μM amoxicillin): 2.9%
- E. coli Amox (−) relative percentage growth compared to untreated cells (E. coli; wild type E. coli, single dose, without amoxicillin): 86%
